The values that follow come from patent publication US11806790B2, “Biosynthesis of metal nanoparticles” (KING SAUD UNIVERSITY, priority 2019, dated 2023).

Parameters in all cases: key: R = resistant; S = susceptible; BLAC = Beta-lactamase positive
In one assay the test system is E. coli (S). The assay is described as follows: Susceptibility test of Gram negative Bacteria. The assay is classed as cell-based.
The test system of the next assay is A. baumannii (S). The assay is described as follows: Susceptibility test of Gram negative Bacteria. Type of assay: cell-based.
Another assay concerns E. coli (R). Description: Susceptibility test of Gram negative Bacteria. Type of assay: cell-based.
Another assay concerns A. baumannii (R). Description: Susceptibility test of Gram negative Bacteria. The assay is classed as cell-based.
For another assay, the system named is MRSA. Description: Susceptibility test of Gram positive Bacteria. The assay is classed as cell-based, Methicillin-resistant S. aureus.
The subject of the next assay is S. aureus (S). The assay is described as follows: Susceptibility test of Gram positive Bacteria. The assay is classed as cell-based.
In a further assay the test system is S. epidermidis (S). The assay is described as follows: Susceptibility test of Gram positive Bacteria. The assay is classed as cell-based.
The test system of another assay is S. epidermidis (R). The assay is described as follows: Susceptibility test of Gram positive Bacteria. Type of assay: cell-based.

As to `CC1(C)S[C@@H]2[C@H](NC(=O)[C@H](N)c3ccc(O)cc3)C(=O)N2[C@H]1C(=O)O` [Amoxicillin], the Susceptibility test entry in the assay with E. coli (S) is on record as “S”; in the assay on A. baumannii (S) it was “S”; in the assay on E. coli (R), “R”; in the assay with A. baumannii (R), “R”.
Regarding `CC1(C)S[C@@H]2[C@H](NC(=O)[C@H](N)c3ccccc3)C(=O)N2[C@H]1C(=O)O` [Ampicillin], the Susceptibility test entry is on record as “BLAC” with MRSA; “S” in the assay with E. coli (S); “BLAC” in the assay with S. aureus (S); “S” in the assay with S. epidermidis (S); “R” in the assay with S. epidermidis (R); “R” with E. coli (R). For the same compound, the Susceptibility test entry with A. baumannii (R) was “R”.
As for `C[C@H]1[C@H](NC(=O)/C(=N\OC(C)(C)C(=O)O)c2csc(N)n2)C(=O)N1S(=O)(=O)O` [Aztreonam], the Susceptibility test entry was “S” in the assay on E. coli (S), “R” with E. coli (R) and “R” in the assay with A. baumannii (R).
In the case of `CC(=O)OCC1=C(C(=O)O)N2C(=O)[C@@H](NC(=O)Cc3cccs3)[C@H]2SC1` [Cefalotin], the figures for the Susceptibility test result in the assay with E. coli (S) and with E. coli (R) were “S” and “R”, respectively.
Consider `C=CC1=C(C(=O)O)N2C(=O)[C@@H](NC(=O)/C(=N\OCC(=O)O)c3csc(N)n3)[C@H]2SC1` [Cefixime], for which the results for the Susceptibility test result in the assay on E. coli (S), with E. coli (R) and with A. baumannii (R) were “S”, “R” and “R”, respectively.
For the compound `CO/N=C(\C(=O)N[C@@H]1C(=O)N2C(C(=O)O)=C(COC(C)=O)CS[C@H]12)c1csc(N)n1` [Cefotaxime], the results for the Susceptibility test result in the assay with A. baumannii (S), with S. epidermidis (R) and with A. baumannii (R) were “S”, “R” and “R”, respectively.
As for `CO[C@@]1(NC(=O)Cc2cccs2)C(=O)N2C(C(=O)O)=C(COC(N)=O)CS[C@@H]21` [Cefoxitin], the Susceptibility test entry in the assay with MRSA is listed as “Positive”; in the assay on S. aureus (S), “Negative”; in the assay on S. epidermidis (S), “S”; in the assay on S. epidermidis (R) it was “R”; in the assay on A. baumannii (R), “R”.
For the compound `CO/N=C(\C(=O)N[C@@H]1C(=O)N2C(C(=O)O)=C(COC(N)=O)CS[C@H]12)c1ccco1` [Cefuroxime], the values for the Susceptibility test entry in the assay with A. baumannii (S), in the assay on E. coli (R) and in the assay on A. baumannii (R) were “S”, “R” and “R”, respectively.
Turning to `CO/N=C(\C(=O)N[C@@H]1C(=O)N2C(C(=O)O)=C(CSc3nc(=O)c(O)nn3C)CS[C@H]12)c1csc(N)n1` [Ciftriaxone], the Susceptibility test entry in the assay on A. baumannii (R) is on record as “R”.
As for `O=C(O)c1cn(C2CC2)c2cc(N3CCNCC3)c(F)cc2c1=O` [Ciprofloxacin], the Susceptibility test result is reported as “S” in the assay with MRSA, “S” in the assay with S. aureus (S), “S” in the assay on S. epidermidis (S) and “R” in the assay with S. epidermidis (R).
Turning to `CCC[C@@H]1C[C@@H](C(=O)N[C@@H]([C@H]2O[C@H](SC)[C@H](O)[C@@H](O)[C@H]2O)[C@H](C)Cl)N(C)C1` [Clindamycin], the results for the Susceptibility test entry with S. aureus (S), with S. epidermidis (S) and with S. epidermidis (R) were “S”, “S” and “R”, respectively.
With `CC[C@H]1OC(=O)[C@H](C)[C@@H](O[C@H]2C[C@@](C)(OC)[C@@H](O)[C@H](C)O2)[C@H](C)[C@@H](O[C@@H]2O[C@H](C)C[C@H](N(C)C)[C@H]2O)[C@](C)(O)C[C@@H](C)C(=O)[C@H](C)[C@@H](O)[C@]1(C)O` [Erythromycin], the Susceptibility test entry was “R” in the assay on S. aureus (S), “S” with S. epidermidis (S) and “R” in the assay on S. epidermidis (R).
As for `C[C@@H](O)[C@H]1C(=O)N2C(C(=O)O)=C(SCCN=CN)C[C@H]12` [Imipenem], the Susceptibility test entry in the assay with MRSA is reported as “R”; in the assay with S. aureus (S), “S”; with S. epidermidis (S), “S”; in the assay on S. epidermidis (R), “R”.
As for `C/C(=C\C(=O)OCCCCCCCCC(=O)O)C[C@@H]1OC[C@H](C[C@@H]2O[C@H]2[C@@H](C)[C@H](C)O)[C@@H](O)[C@H]1O` [Mupirocin], the Susceptibility test entry in the assay with MRSA was “S”; with S. aureus (S), “S”; in the assay with S. epidermidis (S) it was “S”; in the assay on S. epidermidis (R), “R”.
For the compound `O=C1CN(/N=C/c2ccc([N+](=O)[O-])o2)C(=O)N1` [Nitrofurantoin], the Susceptibility test result in the assay on A. baumannii (R) is recorded as “R”.
For `Cc1onc(-c2ccccc2)c1C(=O)N[C@@H]1C(=O)N2[C@@H]1SC(C)(C)[C@@H]2C(=O)O` [Oxacillin], the Susceptibility test entry in the assay with MRSA is recorded as “R”; in the assay on S. aureus (S) it was “S”; with S. epidermidis (S), “S”; with S. epidermidis (R), “R”.
As to `CC1(C)S[C@@H]2[C@H](NC(=O)Cc3ccccc3)C(=O)N2[C@H]1C(=O)O` [Penicillin G], the Susceptibility test result in the assay on MRSA is listed as “BLAC”; with S. aureus (S), “BLAC”; with S. epidermidis (S) it was “S”; in the assay with S. epidermidis (R), “R”.
Regarding Amoxicillin-Clavulanate, the Susceptibility test entry in the assay on MRSA is listed as “R”; in the assay with S. aureus (S), “S”; with S. epidermidis (S) it was “S”; with S. epidermidis (R) it was “R”; in the assay with A. baumannii (R) it was “R”.
Take Gentamycin: the Susceptibility test result with MRSA was “S”; with S. aureus (S), “S”; in the assay with S. epidermidis (S) it was “S”; in the assay with S. epidermidis (R), “R”.
Regarding Trimethoprim-Sulfamethoxazole, the Susceptibility test result is given as “S” in the assay on MRSA, “S” in the assay on S. aureus (S), “S” in the assay on S. epidermidis (S) and “R” with S. epidermidis (R).
